{
  "source": "ChEMBL document CHEMBL1143688",
  "about": "(J Med Chem, 2007)",
  "key": {"Phosphodiesterase 3": {"molecular_target": "Phosphodiesterase 3 (Homo sapiens, UniProt Q14432+Q13370)", "experiment": "Inhibition of human platelet PDE3"}, "Plasma": {"tested_on": "Plasma", "experiment": "Inhibition of 10.0 ug/mL collagen-induced platelet aggregation in human platelet rich plasma", "type": "functional"}},
  "data": [
    {"compound": "Cc1c(OCCN2CCOCC2)ccc2c(N3CCNCC3)cc(=O)oc12", "values": [
      {"measurement": "IC50", "setting": "Phosphodiesterase 3", "result": 0.078, "unit": "µM"}
    ]},
    {"compound": "Cc1c(OCc2cccnc2)ccc2c(N3CCNCC3)cc(=O)oc12", "values": [
      {"measurement": "IC50", "setting": "Phosphodiesterase 3", "result": 0.037, "unit": "µM"}
    ]},
    {"compound": "O=c1cc(N2CCNCC2)c2ccccc2o1", "values": [
      {"measurement": "IC50", "setting": "Plasma", "result": 36, "unit": "µM"}
    ]},
    {"compound": "O=c1cc(N2CCNCC2)oc2ccccc12", "values": [
      {"measurement": "IC50", "setting": "Plasma", "result": 60, "unit": "µM"}
    ]},
    {"compound": "O=C1CCc2cc(OCCCCc3nnnn3C3CCCCC3)ccc2N1", "note": "[CILOSTAZOL]", "values": [
      {"measurement": "IC50", "setting": "Phosphodiesterase 3", "result": 0.28, "unit": "µM"}
    ]}
  ]
}
